Assay results published in patent US20210062149A1, “SINGLE B-CELL CULTIVATION METHOD” (Hoffmann-La Roche Inc., priority 2010, published 2021).

How the values were obtained:
rabbit B-cells = experiment: rbIgG ELISA of cell culture supernatants of rabbit B-cells co-cultivated with EL-4 B5 feeder cells; assay type: cell-based; conditions: for B-cell growth: SAC added to feeder mix
Procedure: (§1) a) The co-cultivation was performed in 96-well multi well plates with round bottom. A basis solution comprising EL-4 B5 cells (1.6×10^6 cells/15.2 ml) and cytokines in EL-4 B5 medium was prepared. 200 μl of the basis solution was added to each well of the multi well plate. To each well a single B-cell was added by fluorescence activated cell sorting. After the addition of the B-cells the plate was centrifuged for 5 min. at 300×g. The plate is incubated for seven days at 37° C.
[…] B cell culture supernatants were removed for screening and the cells harvested immediately for variable region gene cloning or frozen at −80° C. in 100 μl RLT buffer (Qiagen, Hilden, Germany).
(§2) The 96-well multi well plate in which the co-cultivation was performed was centrifuged after seven days of co-cultivation at 300×g for 5 min. 150 μl supernatant was removed and diluted at a ratio of 2:1 with PBS in a second 96-well multi well plate.
The ELISA was performed as outlined in Example 17.
The antibody was used at a concentration of 50 ng/ml. If the OD was or exceeded 1 after an incubation time of 5 min. a dilution series of from 0.8 to 108 ng/ml IgG was tested.
Antibodies produced by single deposited and co-cultivated B-cells or from B-cells obtained from an immunized experimental animal can be characterized with respect to specific antigen binding. The ELISA was performed at room temperature and the ELISA-solution was incubated between the individual steps on a shaker at 20×g. In the first step the antigen was bound to the wells of a 96-well multi well plate. If the antigen was a protein it had been diluted in coating buffer and applied directly to the plate. Peptide antigens were bound via the specific binding pair biotin/streptavidin. The wells of the multi well plate can be already coated with soluble CroteinC (CrC) by the manufacturer. If not, the wells were incubated after the immobilization of the antigen with 200 μl blocking buffer. After the incubation with 100 μl antigen solution per well (pre-coated multi well plate) or 200 μl blocking buffer, respectively, non-bound antigen or blocking buffer was removed by washing with wash buffer. The diluted B-cell supernatants were added in a volume of 100 μl per well and incubated. After the incubation the wells were washed. Afterwards the detection antibody was added in a volume of 100 μl per well. The antibody can be either conjugated to horseradish peroxidase or labeled with biotin. The detection antibody was determined with a streptavidin-horseradish peroxidase conjugate. After the incubation the multi well plate was washed and afterwards 50 μl of a substrate solution containing 3,3′,5,5′ tetramethyl benzidine (TMB) were added per well and incubated for a period as given in Table X. The enzymatic reaction was stopped by the addition of 50 μl sulfuric acid and the optical density was determined at 450 nm and 680 nm with a photometer (Rainbow Thermo ELISA Reader) and the Xread plus-software.

murine B-cells = experiment: Co-cultivation of B-cells with feeder cells and feeder mix additives; assay type: cell-based, mouse
Procedure: as §1, §2

hamster B-cells = experiment: as above; assay type: cell-based
Procedure: as §1, §2

[1] = PAP-1 0.01 μM, in the presence of TSN and SAC
[2] = PAP-1 0.1 μM, in the presence of TSN and SAC
[3] = PAP-1 1 μM, in the presence of TSN and SAC
[4] = PAP-1 10 μM, in the presence of TSN and SAC
[5] = addition of PAP-1 to co-cultivation
[6] = SAC 1:20000, Table 8a third block (with w/o control)
[7] = SAC 1:50000, Table 8a third block
[8] = SAC 1:100000, Table 8a third block
[9] = SAC 1:150000, Table 8a third block
[10] = TSN + SAC, SAC 1:5000, Table 8a second block
[11] = TSN + SAC, SAC 1:10000, Table 8a second block
[12] = TSN + SAC, SAC 1:20000, Table 8a second block
[13] = TSN + SAC, SAC 1:40000, Table 8a second block

## O=c1ccc2c(OCCCCOc3ccccc3)c3ccoc3cc2o1 [PAP-1, 5-(4-phenoxybutoxy) psoralene, reference compound]
Rabbit B-cells; [1]
  rbIgG conc. of all huCk^+ wells [average ng/ml]: 289.0 ng/mL
  rbIgG^+ wells [% total wells]: 29 % total wells
  rbIgG^+ wells [n]: 72 n
Rabbit B-cells; [2]
  rbIgG conc. of all huCk^+ wells [average ng/ml]: 452.9 ng/mL
  rbIgG^+ wells [% total wells]: 27 % total wells
  rbIgG^+ wells [n]: 69 n
Rabbit B-cells; [3]
  rbIgG conc. of all huCk^+ wells [average ng/ml]: 579.5 ng/mL
  rbIgG^+ wells [% total wells]: 37 % total wells
  rbIgG^+ wells [n]: 93 n
Rabbit B-cells; [4]
  rbIgG conc. of all huCk^+ wells [average ng/ml]: 890.7 ng/mL
  rbIgG^+ wells [% total wells]: 32 % total wells
  rbIgG^+ wells [n]: 80 n
Rabbit B-cells; [5]
  effect on number of B-cell clones: without decreasing the number of B-cell clones
  effect on rbIgG secretion of B-cells: increases the rbIgG secretion of B-cells in a concentration dependent manner

## Staphylococcus aureus strain Cowans cells [SAC]
Rabbit B-cells; [6]
  rbIgG conc. of all rbIgG^+ wells [Ø ng/ml]: 665 ng/mL
  rbIgG^+ wells [% total wells]: 30 % total wells
  rbIgG^+ wells [n]: 75 n
Rabbit B-cells; [7]
  rbIgG conc. of all rbIgG^+ wells [Ø ng/ml]: 742 ng/mL
  rbIgG^+ wells [% total wells]: 37 % total wells
  rbIgG^+ wells [n]: 93 n
Rabbit B-cells; [8]
  rbIgG conc. of all rbIgG^+ wells [Ø ng/ml]: 774 ng/mL
  rbIgG^+ wells [% total wells]: 37 % total wells
  rbIgG^+ wells [n]: 92 n
Rabbit B-cells; [9]
  rbIgG conc. of all rbIgG^+ wells [Ø ng/ml]: 668 ng/mL
  rbIgG^+ wells [% total wells]: 29 % total wells
  rbIgG^+ wells [n]: 72 n
Rabbit B-cells; PBL (B cells and endogenous T cells) mixture for co-cultivation
  B-cell growth: B-cell growth was inhibited
Rabbit B-cells; single deposited B-cells
  B-cell growth: only single deposited B-cells have a benefit in growth
Rabbit B-cells; SAC ratio of from 1:20000 to 1:150000
  number of IgG^+-wells/cell clones: increased number of IgG^+-wells/cell clones
Rabbit B-cells; SAC ratio of from 1:50000 to 1:100000
  number of IgG^+-wells/cell clones: highest numbers
Rabbit B-cells; [10]
  rbIgG conc. of all rbIgG^+ wells [Ø ng/ml]: 149.0 ng/mL
  rbIgG^+ wells [% total wells]: 15 % total wells
  rbIgG^+ wells [n]: 13 n
Rabbit B-cells; [11]
  rbIgG conc. of all rbIgG^+ wells [Ø ng/ml]: 159.1 ng/mL
  rbIgG^+ wells [% total wells]: 18 % total wells
  rbIgG^+ wells [n]: 15 n
Rabbit B-cells; [12]
  rbIgG conc. of all rbIgG^+ wells [Ø ng/ml]: 233.7 ng/mL
  rbIgG^+ wells [% total wells]: 32 % total wells
  rbIgG^+ wells [n]: 27 n
Rabbit B-cells; [13]
  rbIgG conc. of all rbIgG^+ wells [Ø ng/ml]: 197.2 ng/mL
  rbIgG^+ wells [% total wells]: 36 % total wells
  rbIgG^+ wells [n]: 30 n
Rabbit B-cells; addition of SAC, single SAC lot
  number of antibody secreting B-cells and average IgG-concentration in the supernatant after co-cultivation: can be increased

## IL-6: interleukin-6, cytokine additive of the feeder mix
Murine B-cells; addition of IL-6 to the feeder mix, murine-B-cells
  number of IgG^+-wells/cell clones: increased number of IgG^+-wells/cell clones
Hamster B-cells; addition of IL-6 to the feeder mix, hamster-B-cells
  IgG-concentration: increased IgG-concentration

B1: IL-4: interleukin-4, cytokine additive of the feeder mix (protein, UniProt P07750 21-140, looked up)
Interleukin-4: HIHGCDKNHLREIIGILNEVTGEGTPCTEMDVPNVLTATKNTTESELVCRASKVLRIFYLKHGKTPCLKKNSSVLMELQRLFRAFRCLDSSISCTMNESKSTSLKDFLESLKSIMQMDYS
Murine B-cells; addition of IL-4 to the feeder mix, murine B-cells
  number of IgG^+-wells/cell clones and IgG-concentration in the supernatant: increases the number of IgG^+-wells/cell clones as well as the IgG-concentration in the supernatant
Hamster B-cells; addition of IL-4 to the feeder mix, hamster B-cells
  number of IgG^+-wells/cell clones and IgG-concentration in the supernatant: increases the number of IgG^+-wells/cell clones as well as the IgG-concentration in the supernatant
